Measured values as given in PMC6691761, “Potential multifunctional agents with anti-hepatoma and anti-inflammation properties by inhibiting NF-кB activation” (Journal of Enzyme Inhibition and Medicinal Chemistry, 2019).

How the values were obtained:
[1] = system: HepG2 cells; assay: Apoptosis assay, annexin V staining, flow cytometry; format: cell-based, human; conditions: 2.0 μM, 24 h
Protocol: After treated with BAP 96 (1.0, 2.0, and 4.0 μM) and DMSO for 24 h. HepG2 cells were washed and added with 500 μL of Binding Buffer, 5 μL of Annexin V-EGFP and 5 μL of Propidiumlodide and mix (BD Biosciences, San Jose, CA) according to the manufacturer’s instruction. The mixed solution was gently vortexed and incubated in the dark at RT for 15 min. The results were detected by flow cytometry (BD FACS Calibur, San Jose, CA) within 1 h.

[2] = system: p-IκBα in LPS-stimulated RAW264.7 cells; assay: LPS-stimulated phosphorylation of IκBα in RAW264.7 cells; format: cell-based; conditions: RAW264.7, 1.0, 2.0, 4.0 μM
Protocol: (§1) The HepG2 cells were treated with BAP 96 at different concentrations (1.0, 2.0, and 4.0 µM) for 3 h, and washed twice by PBS. The cells were lysed and the extracted proteins of cell lysates were separated by 10% SDS-PAGE gel electrophoresis, then transferred onto polyvinylidene fluorides membranes. The membranes were probed with antibodies and visualized using an enhanced chemiluminescence (ECL) detection kit.
(§2) It is known that NF-κB has been implicated in the crossroad of inflammation and cancer[25]^,[26]. In our previous study, some BAPs (such as 23 and 67) could inhibit NF-κB activation by inhibiting the phosphorylation of NF-κB (P65) and IκB[13]^,[14]. Herein, it is an urgent to resolve whether 96 has the same mechanism of action as 23 and 67. Therefore, the RAW264.7 cells were pretreated with LPS, and then treated with different concentrations (1.0, 2.0, 4.0 μM) of 96. […] Similarly, the HepG2 cells were pretreated with TNF-α, then treated with different concentrations (1.0, 2.0, and 4.0 μM) of 96.

[3] = system: p-p65 in LPS-stimulated RAW264.7 cells; assay: LPS-stimulated phosphorylation of p65 in RAW264.7 cells; format: cell-based; conditions: RAW264.7, 1.0, 2.0, 4.0 μM
Protocol: as §1, §2

[4] = system: NF-κB p65 nuclear translocation in TNF-α-stimulated HepG2 cells; assay: NF-κB p65 nuclear translocation, immunofluorescence, HepG2; format: cell-based, human; conditions: HepG2, TNF-α 10 ng/mL, 4.0 μM
Protocol: RAW264.7 cells were pretreated in 96-well plates with LPS (1 μg/mL) for 15 min and then treated with 96 for 2 h. Similarly, HepG2 cells were pretreated with TNF-α (10 ng/mL) for 15 min and then treated with 96 for 4 h. The cells were fixed with 2% paraformaldehyde for 15 min at 37 °C and permeabilized using 0.1% Triton X-100 for 10 min at RT. After blockage with 3% BSA for 30 min, the cells were incubated with anti-NF-κB p65 antibody (NOVUS BIOLOGICALS, Colorado, USA) at 4 °C overnight. After washing, the anti-mouse Alexa488-conjugated secondary antibody (Jackson Immuno Research, West Grove, PA) was incubated for 30 min at RT. After washed with PBS, the cells were incubated in 4-6-diamidino-2-phenyindole (DAPI; Sigma, St. Louis, MO) for 15 min in the dark at RT. The cell images were simultaneously viewed using a microscopy system in High Throughput Screen (Operetta, PerkinElmer, Waltham, MA).

[5] = system: C-caspase-3 expression in HepG2 xenografts; assay: Western blot, C-caspase-3 in HepG2 xenografts; format: in vivo, Balb/c nude mice; conditions: 0.2, 1.0 and 5.0 mg/kg
Protocol: (§3) The HepG2 cells xenografts were established using the Balb/c nude mice (female, 7-week-old, 17–19 g, n = 30) (Shanghai Laboratory Animal Center, Shanghai Shi, China) were used to investigate the anti-hepatoma effect of 96. Animal experiments were reviewed and approved by the Binzhou Medical University Experimental Animal Committee. Briefly, HepG2 cells (1 × 10^7/0.2 ml PBS/mouse) were inoculated subcutaneously. Three days after the inoculation, the mice were randomly divided into five groups: the saline treated group (Control), 96 (0.2 mg/kg) group, 96 (1.0 mg/kg) treated group, 96 (5.0 mg/kg) treated group, and DOX (1.0 mg/kg) treated group. 96 were dissolved in saline containing 1% of DMSO and administered intraperitoneally every 2 d for 20 days. DOX was also administered intraperitoneally every 2 d for 20 d. The body weight and HepG2 xenografts volumes were recorded from the day of treatment, and xenografts volumes were calculated using the equation: tumour volume = length×(width)[2]×π/6. At the end of the experiment, mice were sacrificed and the xenografts were obtained for western blotting, HE staining and immunohistochemistry staining.
Western blotting was performed to detect the expression of Bcl-2, Bax and C-caspase-3 in HepG2 xenografts. Fresh HepG2 xenografts tissues were lysed and the obtained proteins were processed as the protein obtained from the HepG2 cells.

[6] = system: Bcl-2 expression in HepG2 xenografts; assay: Immunohistochemistry staining of Bcl-2 in HepG2 xenografts; format: in vivo, Balb/c nude mice; conditions: 96 5.0 mg/kg, DOX 1.0 mg/kg, versus model group
Protocol: as §3
(§4) The HepG2 xenografts tissues were embedded using the paraffin, and sectioned for HE staining and immunohistochemistry staining. HE staining was performed routinely. The immunohistochemistry staining carried out as following. […]

[7] = system: TNF-α expression in HepG2 xenografts; assay: Immunohistochemistry staining of TNF-α in HepG2 xenografts; format: in vivo, Balb/c nude mice; conditions: 96 5.0 mg/kg, DOX 1.0 mg/kg, versus model group
Protocol: as §3, §4

## CN1CC(=Cc2cccc(N=Cc3cc(Br)ccc3O)c2)C(=O)C(=Cc2ccccc2F)C1 [Compound 96]
[1]
  Apoptosis rate of HepG2 cells: 24.4%
[2]
  Expression level of LPS-induced p-IκBα: effectively decreased in a dose-dependent manner
[3]
  Expression level of LPS-induced p-p65: effectively decreased in a dose-dependent manner
[4]
  p65 nuclear translocation: prevented the p65 nuclear translocation
[5]
  Expression of C-caspase-3 in HepG2 xenografts: significantly increased in a dose-dependent manner
[6]
  Bcl-2 expression, immunohistochemistry: significantly reduced
[7]
  TNF-α expression, immunohistochemistry: significantly reduced
